Measurements from US4205086A, “Method for the treatment of gallstones” (priority 1977, dated 1980).
Where two headings read alike, the source gives them in different places.

Assays:
[1] = cited from earlier work; for tolerability by patients / toxicity: organic solvents; for solubilizing capacity for gallstones: 100-200 mM solutions
[2] = studies evaluating the solubility of gallstones in a variety of compounds (Example 3); settings: observed for several days
Procedure: Studies are conducted to evaluate the solubility of gallstones in a variety of compounds.

[3] = viscosity of compounds used for perfusion (in words); type: physicochemical
Excerpt: It is also preferable that the compound not be excessively viscous at the perfusion temperature in view of the need for the compound to move through the perfusion equipment and to pass over or around the gallstone. The degree of viscosity which is tolerable, and the compounds therefore useful in the present invention, may be readily determined by experiment. […] Fatty acids useful in the present invention are generally those having short to medium carbon chain lengths, or from about 2 to about 12 carbon atoms. […]. As previously mentioned, these fatty acids which have melting points above body temperature, which is approximately 37° C., may be combined with the fatty acids which are liquid at body temperature to provide a liquid mixture having relatively low proportions of the higher fatty acids.

[4] = treatment of gallstones by perfusion, general results in practice; type: in vivo, human (patient); settings: for solvency for the gallstones: in vivo; for results in treatment of gallstones: perfusion
Excerpt: In accordance with the method of the present invention a selected compound is perfused adjacent the gallstone. For the purposes herein, the term perfusion is intended to encompass the introduction of the compound in a manner that will cause the compound to pass over or around the subject gallstone, and includes equivalent terms such as infusion. The perfusion may be accomplished in accordance with normal procedures, and for example may be performed with a T-tube or an endoscope. The compound utilized by the present invention thereby contacts and gradually dissolves the gallstone. The response of the gallstone to this procedure may be followed, for example, by repeated cholangiograms.
A compound useful in accordance with the method of the present invention may also comprise a mixture of fatty acids and alcohol esters of fatty acids. Typically the fatty acid esters would be esters of the same fatty acids which exist separately in the solution, although such is not required. It is preferred that the fatty acids which exist either as themselves or in the ester form have from about 2 to about 12 carbon atoms, with from about 8 to about 10 carbon atoms being more preferred. In a most preferred embodiment of the present invention, the method comprises the perfusion of a compound having a mixture of fatty acids from about 8 to about 10 carbon atoms and alcohol esters, particularly glycerides, of fatty acids having from about 8 to about 10 carbon atoms. […].

[5] = test comparing the solubility of gallstones in glycerol mono-octanoate and 200 mM sodium cholate (Example 2); design: species or system human (patient); settings: six days; sodium cholate 200 mM, mono-octanoate solution as in Example 1

## C[C@H](CCC(=O)O)[C@H]1CC[C@H]2[C@@H]3[C@H](O)C[C@@H]4C[C@H](O)CC[C@]4(C)[C@H]3CC[C@]12C [Kenodeoxycholic acid]
[1]; prior art
  results in dissolution of gallstones: more preferable, but also is relatively slow

## CCCCCCCCCC(=O)OCCCC [butanol decanoate]
[2]
  solubility of gallstones in the compound: suitably soluble

## ClC(Cl)Cl [chloroform]
[1]; prior art
  tolerability by patients: poorly tolerated
  toxicity: potentially toxic

## C=C(C)[C@H]1CC=C(C)CC1 [d-limonene]
[1]; prior art
  tolerability by patients: poorly tolerated
  toxicity: potentially toxic
  results in dissolution of gallstones: without highly favorable results

## CCCCCCCC(=O)OCC [ethanol octanoate]
[2]
  solubility of gallstones in the compound: suitably soluble

## CCOCC [ether]
[1]; prior art
  tolerability by patients: poorly tolerated
  toxicity: potentially toxic
  results in dissolution of gallstones: without highly favorable results

## CCCCCCCC(=O)OCCO [ethylene glycol mono-octanoate]
[2]
  solubility of gallstones in the compound: suitably soluble

## CCCCCCCC(=O)OCC(O)CO (stereo not shown) [glycerol mono-octanoate]
[2]
  solubility of gallstones in the compound: suitably soluble
[3]
  viscosity: low viscosity
human, in vivo
  tolerability and adverse symptoms or effects: tolerated the procedure well and showed no adverse symptoms or effects
Perfused at 5 ml per hour, after six days, patient
  stones on follow-up after six days of perfusion: only two very small lucencies were apparent
Perfused at 5 ml per hour, six days plus 3 additional days, patient
  stones on follow-up after 3 additional days of perfusion: no evidence of the stones
Similar clinical trials at the Mayo Clinic
  results of similar clinical trials: equally good results
[4]
  solvency for the gallstones: high solvency
  results in treatment of gallstones: excellent results
[4]; listed as mono-glyceride of octanoic acid
  results in treatment of gallstones: particularly excellent results

## CCCCCCCC(=O)OCC(COC(=O)CCCCCCC)OC(=O)CCCCCCC [glycerol tri-octanoate]
[2]
  solubility of gallstones in the compound: suitably soluble

## C[C@H](CCC(=O)O)[C@H]1CC[C@H]2[C@@H]3[C@H](O)C[C@@H]4C[C@H](O)CC[C@]4(C)[C@H]3C[C@H](O)[C@]12C [sodium cholate]
[5]
  change in size of stones: little or no apparent change
[1]; prior art
  solubilizing capacity for gallstones: definite but low
[1]; uncontrolled studies
  bile acid diarrhea: often with bile acid diarrhea
  time to disappearance of distal common bile duct stones: 1-4 weeks

## Oxycholic acid
[1]; prior art
  solubilizing capacity for gallstones: definite but low
[1]; in vivo
  bile acid diarrhea: often with bile acid diarrhea
[1]; uncontrolled studies
  time to disappearance of distal common bile duct stones: 1-4 weeks

## glycerol di-decanoate
[2]
  solubility of gallstones in the compound: suitably soluble

## heparin
[1]; in saline solution, prior art
  fragmentation or dissolution of gallstones: function poorly

## propylene glycol mono-octanoate
[3]
  viscosity: low viscosity
[4]
  solvency for the gallstones: high solvency
  results in treatment of gallstones: particularly excellent results
